The test system of one assay is morningglory. The assay can be described thus: Test A preemergence. Type of assay: in vivo, Ipomoea spp. As to conditions: Ipomoea, pre-emergence, 240 h, 0 to 100 scale (0 no effect, 100 complete control), read-out: Plant response rating, Morningglory; for pest or weed control at 125 g/ha: 125 g ai/ha; for pest or weed control at 500 g/ha: 500 g ai/ha, approx. 10 d. In outline: (§1)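 Loam/sand soil mix; compound in non-phytotoxic solvent + surfactant. Pre: directed soil spray right after planting seed. Post: potted plants 2–10 cm, 1–2 leaf stage, sprayed with same formulation.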

Another assay relates to corn. The assay can be described thus: Test A preemergence. Type of assay: in vivo, Zea mays. As to conditions: Zea mays, pre-emergence, 240 h, 0 to 100 scale (0 no effect, 100 complete control); for Corn plant response rating (crop injury, 0 = no effect, 100 = complete kill) at 125 g/ha: 125 g ai/ha; for Corn plant response rating (crop injury, 0 = no effect, 100 = complete kill) at 500 g/ha: 500 g ai/ha, approx. 10 d. The method in brief: as §1

The test system of a further assay is kochia. The assay can be described thus: Test A preemergence. As to conditions: 0 to 100 scale (0 no effect, 100 complete control). Type of assay: in vivo, Kochia scoparia. An excerpt:
(§2) Seeds of plant species selected from barnyardgrass (Echinochloa crus-galli), crabgrass, large (large crabgrass, Digitaria sanguinalis), kochia (Kochia scoparia), ragweed (common ragweed, Ambrosia elatior), foxtail, giant (giant foxtail, Setaria faberii), morningglory (Ipomoea spp.), pigweed (Amaranthus retroflexus), velvetleaf (Abutilon theophrasti), ryegrass, Italian (Italian ryegrass, Lolium multiflorum), wheat (Triticum aestivum), and corn (Zea mays) were planted into a blend of loam soil and sand and treated preemergence with a directed soil spray using test chemicals formulated in a non-phytotoxic solvent mixture which included a surfactant.
(§3) At the same time, plants selected from these crop and weed species and also blackgrass (Alopecurus myosuroides), and galium (catchweed bedstraw, Galium aparine), were planted in pots containing the same blend of loam soil and sand and treated with postemergence applications of test chemicals formulated in the same manner. Plants ranged in height from 2 to 10 cm and were in the one- to two-leaf stage for the postemergence treatment. Treated plants and untreated controls were maintained in a greenhouse for approximately 10 d, after which time all treated plants were compared to untreated controls and visually evaluated for injury. Plant response ratings, summarized in Table A, are based on a 0 to 100 scale where 0 is no effect and 100 is complete control. A dash (-) response means no test result.

For the next assay, the system named is ryegrass, Italian. The assay can be described thus: Test A preemergence. The settings on record: 0 to 100 scale (0 no effect, 100 complete control). It is filed as in vivo, Lolium multiflorum.
From the text: as §2, §3

The next assay deals with ragweed. The assay can be described thus: Test A postemergence. As to conditions: 0 to 100 scale (0 no effect, 100 complete control), approx. 10 d. It is filed as in vivo, Ambrosia elatior.
From the text: as §2, §3

A further assay concerns chickweed. The assay can be described thus: Test D preemergence. It is filed as in vivo, Stellaria media. The settings on record: for Plant response rating: Chickweed: scale 0 to 100. An excerpt:
(§4) Seeds of plant species selected from bluegrass (annual bluegrass, Poa annua), blackgrass (Alopecurus myosuroides), canarygrass (Phalaris minor), chickweed (common chickweed, Stellaria media), galium (catchweed bedstraw, Galium aparine), bromegrass, down (downy bromegrass, Bromus tectorum), Russian thistle (Salsola kali), field poppy (Papaver rhoeas), field violet (Viola arvensis), foxtail, green (green foxtail, Setaria viridis), deadnettle (henbit deadnettle, Lamium amplexicaule), ryegrass, Ital. (Italian ryegrass, Lolium multiflorum), kochia (Kochia scoparia), lambsquarters (Chenopodium album), oilseed rape (Brassica napus), pigweed (Amaranthus retroflexus), chamomile (scentless chamomile, Matricaria inodora), speedwell (bird's-eye speedwell, Veronica persica), barley, spring (spring barley, Hordeum vulgare), wheat, spring (spring wheat, Triticum aestivum), buckwheat, wild (wild buckwheat, Polygonum convolvulus), wild mustard (Sinapis arvensis), oat, wild (wild oat, Avena fatua), radish, wild (wild radish, Raphanus raphanistrum), […]), barley, winter (winter barley, Hordeum vulgare), and wheat, winter (winter wheat, Triticum aestivum) were planted into a silt loam soil and treated preemergence with test chemicals formulated in a non-phytotoxic solvent mixture which included a surfactant. At the same time, these species were planted in pots containing Sunshine Redi-Earth® planting medium comprising spaghnum peat moss, vermiculite, starter nutrients and dolomitic limestone and treated with postemergence applications of the test chemicals formulated in the same manner. Plants ranged in height from 2 to 18 cm (1- to 4-leaf stage). Treated plants and controls were maintained in a controlled growth environment for 14 to 21 d after which time all species were compared to controls and visually evaluated. […] A dash (-) response means no test result.

A further assay relates to deadnettle. The assay can be described thus: Test D preemergence. Type of assay: in vivo, Lamium amplexicaule. As to conditions: for Plant response rating: Deadnettle: scale 0 to 100.
From the text: as §4

Another assay has as its system galium. The assay can be described thus: Test C preemergence. The settings on record: for Plant response rating (scale of 0 to 100 where 0 is no effect and 100 is complete control): Galium, preemergence; for Galium plant response rating (0 to 100): Preemergence, visual rating after 13 to 15 d. Type of assay: in vivo, Galium aparine. The text has this:
(§5) Seeds of plant species selected from blackgrass (Alopecurus myosuroides), ryegrass, Italian (Italian ryegrass, Lolium multiflorum), wheat (winter wheat, Triticum aestivum), galium (catchweed bedstraw, Galium aparine), corn (Zea mays), crabgrass, large (large crabgrass, Digitaria sanguinalis), foxtail, giant, (giant foxtail, Setaria faberii), johnsongrass (Sorghum halepense), lambsquarters (Chenopodium album), morningglory (Ipomoea coccinea), nutsedge, yellow (yellow nutsedge, Cyperus esculentus), pigweed (Amaranthus retroflexus), ragweed (common ragweed, Ambrosia elatior), soybean (Glycine max), barnyardgrass (Echinochloa crus-galli), oilseed rape (Brassica napus), waterhemp (common waterhemp, Amaranthus rudis), and velvetleaf (Abutilon theophrasti) were planted into a blend of loam soil and sand and treated preemergence with test chemicals formulated in a non-phytotoxic solvent mixture which included a surfactant. At the same time, plants selected from these crop and weed species and also chickweed (common chickweed, Stellaria media), oat, wild (wild oat, Avena fatua), and kochia (Kochia scoparia), were planted in pots containing Sunshine Redi-Earth® planting medium comprising spaghnum peat moss, vermiculite, starter nutrients and dolomitic limestone and treated with postemergence applications of test chemicals formulated in the same manner. Plants ranged in height from 2 to 18 cm (1- to 4-leaf stage) for postemergence treatments. […] A dash (-) response means no test result.

The test system of another assay is velvetleaf. The assay can be described thus: Test C preemergence. It is filed as in vivo, Abutilon theophrasti. The settings on record: for Velvetleaf plant response rating (0 to 100): Preemergence, visual rating after 13 to 15 d.
From the text: as §5

Setting [1] is: 16 g ai/ha, 0 is no effect, 100 is complete control.

Take `Cn1nc(-c2ccc(F)cc2)nc1C(O)c1ccnc(C(F)(F)F)c1` (stereo not drawn) [Compound 14, α-[3-(4-fluorophenyl)-1-methyl-1H-1,2,4-triazol-5-yl]-2-(trifluoromethyl)-4-pyridinemethanol]: in the assay on morningglory, the pest or weed control at 125 g/ha amounted to 0% and the pest or weed control at 500 g/ha was found to be 0%. In the assay on corn, the Corn plant response rating (crop injury, 0 = no effect, 100 = complete kill) at 125 g/ha amounted to 0% and the Corn plant response rating (crop injury, 0 = no effect, 100 = complete kill) at 500 g/ha was 0%.

As for `CCn1nc(-c2ccc(F)cc2)nc1C(=O)c1ccnc(C(F)(F)F)c1` [Compound 19, [1-ethyl-3-(4-fluorophenyl)-1H-1,2,4-triazol-5-yl][2-(trifluoromethyl)-4-pyridinyl]methanone], in the assay with morningglory, the pest or weed control at 125 g/ha came to 0% and the pest or weed control at 500 g/ha was 0%. Besides, in the assay on corn, the Corn plant response rating (crop injury, 0 = no effect, 100 = complete kill) at 125 g/ha was 0% and the Corn plant response rating (crop injury, 0 = no effect, 100 = complete kill) at 500 g/ha stood at 0%.

As to `COc1nc(-c2ccc(Cl)cc2)nn1Cc1ccnc(C(F)(F)F)c1` [Compound 28], the “Plant response rating, Kochia” value in the assay with kochia (125 g ai/ha) amounted to 70; in the assay on kochia (500 g ai/ha, approx. 10 d) it was 90. The “Plant response rating, Ryegrass, Italian” value in the assay with ryegrass, Italian (125 g ai/ha) is 20; in the assay on ryegrass, Italian (500 g ai/ha, approx. 10 d) it was 90. Besides, the “Plant response rating, Ragweed” value with ragweed (125 g ai/ha) turned out to be 20; with ragweed (500 g ai/ha), 30. Further, the “Plant response rating (0 to 100), Chickweed” value in the assay on chickweed (setting [1]) came to 65. Besides, the figures for the “Plant response rating: Chickweed” value in the assay on chickweed (31 g ai/ha), in the assay on chickweed (62 g ai/ha) and in the assay with chickweed (125 g ai/ha) were 70, 70 and 90, respectively. For the same compound, the “Plant response rating (0 to 100), Deadnettle” value in the assay on deadnettle (setting [1]) was found to be 20. In addition, the “Plant response rating: Deadnettle” value is reported as 75 in the assay with deadnettle (31 g ai/ha), 95 with deadnettle (62 g ai/ha) and 100 with deadnettle (125 g ai/ha).

For the compound `COc1nc(-c2ccc(F)cc2)nn1Cc1ccnc(C(F)(F)F)c1` [Compound 9, 4-[[3-(4-fluorophenyl)-5-methoxy-1H-1,2,4-triazol-1-yl]methyl]-2-(trifluoromethyl)pyridine], the pest or weed control at 125 g/ha in the assay with morningglory amounted to 10%. The pest or weed control at 500 g/ha in the assay on morningglory stood at 90%. Also, the Corn plant response rating (crop injury, 0 = no effect, 100 = complete kill) at 125 g/ha in the assay on corn worked out at 0%. This compound also displayed a Corn plant response rating (crop injury, 0 = no effect, 100 = complete kill) at 500 g/ha in the assay on corn of 40%. Moreover, the “Plant response rating (scale of 0 to 100 where 0 is no effect and 100 is complete control)” value is listed as 90 in the assay with galium (125 g ai/ha); 98 in the assay on galium (250 g ai/ha); 60 with velvetleaf (Velvetleaf, preemergence, 250 g ai/ha). The “Galium plant response rating (0 to 100)” value in the assay on galium (31 g ai/ha) and in the assay on galium (62 g ai/ha) was 5 each time. In addition, the results for the “Velvetleaf plant response rating (0 to 100)” value in the assay on velvetleaf (31 g ai/ha) and with velvetleaf (62 g ai/ha) were 20 and 25, respectively.

For `CS(=O)(=O)c1nc(-c2ccc(F)cc2)nn1Cc1ccnc(C(F)(F)F)c1` [Compound 29, 4-[[3-(4-fluorophenyl)-5-(methylsulfonyl)-1H-1,2,4-triazole-1-yl]methyl]-2-(trifluoromethyl)pyridine], in the assay on morningglory, the pest or weed control at 125 g/ha came out at 0% and the pest or weed control at 500 g/ha worked out at 0%. Further, in the assay with corn, the Corn plant response rating (crop injury, 0 = no effect, 100 = complete kill) at 125 g/ha came out at 0% and the Corn plant response rating (crop injury, 0 = no effect, 100 = complete kill) at 500 g/ha was 0%.

Take `Cn1nc(-c2ccc(F)cc2)nc1Oc1cccc(C(F)(F)F)c1` [Compound 5, 3-(4-fluorophenyl)-1-methyl-5-[3-(trifluoromethyl)phenoxy]-1H-1,2,4-triazole]: in the assay with morningglory, the pest or weed control at 125 g/ha was 0% and the pest or weed control at 500 g/ha turned out to be 0%. Further, in the assay on corn, the Corn plant response rating (crop injury, 0 = no effect, 100 = complete kill) at 125 g/ha was determined as 0% and the Corn plant response rating (crop injury, 0 = no effect, 100 = complete kill) at 500 g/ha was 0%.

Turning to `CCOc1nc(-c2ccc(Cl)cc2)nn1Cc1ccnc(C(F)(F)F)c1` [Compound 26], the “Plant response rating, Kochia” value came to 60 in the assay with kochia (31 g ai/ha) and 90 in the assay with kochia (125 g ai/ha). The “Plant response rating, Ryegrass, Italian” value in the assay on ryegrass, Italian (31 g ai/ha) came to 40; in the assay on ryegrass, Italian (125 g ai/ha) it was 100. Also, the “Plant response rating, Ragweed” value was determined as 30 with ragweed (31 g ai/ha) and 50 with ragweed (125 g ai/ha).

Turning to `COc1nc(-c2ccc(C(F)(F)F)cc2)nn1Cc1ccnc(C(F)(F)F)c1` [Compound 25], the “Plant response rating, Kochia” value in the assay on kochia (31 g ai/ha) worked out at 20; in the assay on kochia (125 g ai/ha) it was 80. For the same compound, the “Plant response rating, Ryegrass, Italian” value with ryegrass, Italian (31 g ai/ha) is given as 0; in the assay with ryegrass, Italian (125 g ai/ha), 50. The “Plant response rating, Ragweed” value is 20 in the assay with ragweed (31 g ai/ha) and 30 in the assay with ragweed (125 g ai/ha).

`CCCn1nc(-c2ccc(F)cc2)nc1Cc1ccnc(C(F)(F)F)c1` [Compound 17, 4-[[3-(4-fluorophenyl)-1-propyl-1H-1,2,4-triazol-5-yl]methyl]-2-(trifluoromethyl)pyridine]: in the assay on morningglory, the pest or weed control at 125 g/ha worked out at 70% and the pest or weed control at 500 g/ha was determined as 90%. In the assay on corn, the Corn plant response rating (crop injury, 0 = no effect, 100 = complete kill) at 125 g/ha was 30% and the Corn plant response rating (crop injury, 0 = no effect, 100 = complete kill) at 500 g/ha worked out at 40%.

On to `CCn1nc(-c2ccc(F)cc2)nc1C(O)c1ccnc(C(F)(F)F)c1` (stereo not drawn) [Compound 15, α-[1-Ethyl-3-(4-fluorophenyl)-1H-1,2,4-triazol-5-yl]-2-(trifluoromethyl)-4-pyridinemethanol], for which, in the assay on morningglory, the pest or weed control at 125 g/ha was determined as 0% and the pest or weed control at 500 g/ha stood at 0%. Also, in the assay with corn, the Corn plant response rating (crop injury, 0 = no effect, 100 = complete kill) at 125 g/ha stood at 0% and the Corn plant response rating (crop injury, 0 = no effect, 100 = complete kill) at 500 g/ha turned out to be 0%.

Regarding `CCCOc1nc(-c2ccccc2)nn1Cc1ccnc(C(F)(F)F)c1` [Compound 33], the “Plant response rating, Kochia” value came out at 60 in the assay on kochia (125 g ai/ha) and 90 in the assay with kochia (500 g ai/ha, approx. 10 d). For the same compound, the “Plant response rating, Ryegrass, Italian” value with ryegrass, Italian (125 g ai/ha) worked out at 30; with ryegrass, Italian (500 g ai/ha) it was 60. Moreover, the “Plant response rating, Ragweed” value with ragweed (125 g ai/ha) is on record as 30; in the assay with ragweed (500 g ai/ha), 50.

The record behind these values is patent publication US10681909B2, “Herbicidal triazoles” (FMC Corporation, priority 2014, dated 2020).
